Assays:
[1] = system: transglutaminase (TGase); assay: Measurement of TG (TGase inhibitory activity, monodansyl cadaverine / N,N-dimethylcasein fluorescence, FDSS 3000); type: biochemical
Procedure: For example, the method described in the Example can be performed.
The compound of the present invention (10 mM, 1 μL) was taken in a 96-well plate (Nunc, 96 Well Black Plate with Clear Bottom), an enzyme reaction solution (100 mM HEPES-NaOH, pH 7.5, 1 mM CaCl2, 20 μM monodansyl cadaverine, 0.05 mg/mL N,N-dimethylcasein, 5 μg/mL TGase) (0.1 ml) was added and the mixture was sufficiently mixed without making foams. The mixture was set on a fluorescence drug screening system FDSS 3000 (Hamamatsu Photonics K.K.), and changes in the fluorescence wavelength per unit time at 340 nm were measured, based on which the TGase inhibitory activity of the compound of the present invention was calculated. As a control, change in the fluorescence when 1 μL of DMSO (dimethyl sulfoxide) was added instead of the compound of the present invention was taken as 100, and TG50 was when the activity decreased to half due to the compound of the present invention.

[2] = system: Truncated N-terminal huntington 150 Q-EGFP-Neuron 2a cells; assay: Measurement of x-Fold (polyglutamine aggregation inhibitory activity); type: cell-based
Procedure: In the present invention, the polyglutamine aggregation inhibitory activity (x-Fold) can be measured, for example, by the method described in the Example.
The number of the aggregated cells, and the total number of cells were counted by Array Scan V T1 (manufactured by Cellomics, Pittuburg, USA), and the ratio of the aggregated cells to the total number of cells was determined (x-Fold). […]

[3] = TGase activity with compound (10 mM, 1 μL in 0.1 ml enzyme reaction solution), DMSO control taken as 100
[4] = TGase inhibitory activity value, Table 1
[5] = polyglutamine aggregation inhibitory activity, Table 1
[6] = ratio of aggregated cells to total number of cells, compound 20 μM, 20 hr, almost 1 without compound, smaller = stronger inhibition

SMILES	TGase activity remaining (% of DMSO control = 100) [1, 3]	TGase activity remaining (% of DMSO control = 100) [1, 4]	TGase activity remaining (% of DMSO control = 100) ([1]; TGase inhibitory activity value, Table 1, listed as 6023)	x-Fold [2, 5]	x-Fold [2, 6]
NCCOB(c1cc(F)c(F)c(F)c1)c1cc(F)c(F)c(F)c1 [Example 89, aminoethyl bis(3,4,5-trifluorophenyl)borinate]	80	80	–	0.94	0.94
NCCOB(c1cc(F)cc(F)c1)c1cc(F)cc(F)c1 [Example 91, aminoethyl bis(3,5-difluorophenyl)borinate]	107	107	–	0.99	0.99
NCCOB(c1ccc(Cl)c(F)c1)c1ccc(Cl)c(F)c1 [Example 93, aminoethyl bis(4-chloro-3-fluorophenyl)borinate]	117	–	117	0.93	0.93
CN(C)CCOB(c1ccc(Cl)c(F)c1)c1ccc(Cl)c(F)c1 [Example 94, dimethylaminoethyl bis(4-chloro-3-fluorophenyl)borinate]	114	114	–	0.95	0.95
NCCC(N)C(=O)OB(c1ccc(Cl)c(F)c1)c1ccc(Cl)c(F)c1 (stereo not shown) [Example 95, di(3-fluoro-4-chlorophenyl)(2,4-diaminolactonate-O,N)borane]	114	114	–	0.88	0.88
NC(=O)CC[C@H](N)C(=O)OB(c1ccc(Cl)c(F)c1)c1ccc(Cl)c(F)c1 [Example 96, di(3-fluoro-4-chlorophenyl)(glutaminate-O,N)borane]	124	124	–	0.86	0.86
OB(c1cc(Cl)ccc1F)c1cc(Cl)ccc1F [Example 98, bis(3-chloro-6-fluorophenyl)borinic acid]	111	111	–	0.95	0.95
NCCOB(c1cc(F)cc(Cl)c1)c1cc(F)cc(Cl)c1 [Example 99, aminoethyl bis(3-chloro-5-fluorophenyl)borinate]	109	109	–	0.73	0.73
NCCOB(c1cc(Cl)ccc1F)c1cc(Cl)ccc1F [Example 100, aminoethyl bis(3-chloro-6-fluorophenyl)borinate]	119	119	–	0.97	0.97

Now from value to compound, other results behind:

TGase activity remaining (% of DMSO control = 100) [1, 3]	TGase activity remaining (% of DMSO control = 100) [1, 4]	TGase activity remaining (% of DMSO control = 100) ([1]; TGase inhibitory activity value, Table 1, listed as 6023)	SMILES	x-Fold [2, 5]	x-Fold [2, 6]
82	82	–	NCC(OB(c1ccc(F)c(F)c1)c1ccc(F)c(F)c1)c1ccccc1 (stereo not shown) [Example 88, 2-amino-1-phenylethyl bis(3,4-difluorophenyl)borinate]	0.83	0.83
93	93	–	Fc1cc(B(OCc2ccccn2)c2cc(F)c(F)c(F)c2)cc(F)c1F [Example 90, 2-pyridylmethyl bis(3,4,5-trifluorophenyl)borinate]	0.81	0.81
106	106	–	CN(C)CCOB(c1cc(F)cc(F)c1)c1cc(F)cc(F)c1 [Example 92, dimethylaminoethyl bis(3,5-difluorophenyl)borinate]	1.00	1.00
122	122	–	OB(c1cc(F)cc(Cl)c1)c1cc(F)cc(Cl)c1 [Example 97, bis(3-chloro-5-fluorophenyl)borinic acid]	0.72	0.72

Reference: patent US8853424B2 (Japan Science and Technology Agency, priority 2008, dated 2014)
